Among the test systems are HL-60(TB) leukemia; SF-295 CNS; M14 melanoma; U251 CNS; SK-MEL-28 melanoma; OVCAR-4 ovarian; TK-10 renal; ACHN renal; RXF 393 renal; HOP-62 NSCLC.
Common to all, as to assay: inhibition of tumour cell growth, NCI panel, 48 h

The text below walks through data of PubChem BioAssay (NCI).

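A five-concentration, 48-hour dose response in 96-well plates underlies each endpoint, interpolated linearly between surrounding concentrations. Here, GI50 denotes the concentration required for 50% inhibition of growth. TGI denotes the concentration required for complete inhibition of growth.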

Regarding `CN(C)c1ccc2c(c1)CN1C(=O)c3ccccc3C1=N2`, the GI50 in the test with HL-60(TB) leukemia, in the test with SF-295 CNS, in the test on M14 melanoma, in the test with U251 CNS, in the test on SK-MEL-28 melanoma and in the test with OVCAR-4 ovarian was more than 100 µM in each case. Moreover, the GI50 in the test on TK-10 renal, with ACHN renal and with RXF 393 renal was more than 100 µM in each case. Further, the TGI with HL-60(TB) leukemia, with SF-295 CNS, with M14 melanoma, in the test on U251 CNS, with SK-MEL-28 melanoma and in the test on OVCAR-4 ovarian was more than 100 µM each time. Also, the TGI in the test on TK-10 renal, in the test with ACHN renal and in the test on RXF 393 renal was more than 100 µM throughout.

As for `CN1C(OCc2ccccc2)c2c(ccc3c2OCO3)C2C=Cc3cc4c(cc3C21)OCO4` (configuration not stated), the TGI stood at 2.81 µM in the test with SF-295 CNS; 2.1 µM in the test with M14 melanoma; 2.84 µM in the test on U251 CNS; 1.63 µM in the test with SK-MEL-28 melanoma; 2.96 µM in the test with HOP-62 NSCLC; 3.06 µM in the test with OVCAR-4 ovarian. Moreover, the TGI came out at 3.3 µM in the test with TK-10 renal, 2.83 µM in the test on ACHN renal and 2.31 µM in the test on RXF 393 renal.

Take `N=Nc1c(OC(=O)Nc2ccccc2)[nH]c2ccccc12`: the TGI in the test with SF-295 CNS is 30.2 µM; in the test with M14 melanoma it was 37.9 µM; in the test on U251 CNS, 30.8 µM; with SK-MEL-28 melanoma, more than 100 µM; in the test with HOP-62 NSCLC it was 36.4 µM; with OVCAR-4 ovarian, 30.7 µM. In addition, the TGI with TK-10 renal was found to be 60.8 µM; in the test on ACHN renal, 36.6 µM; with RXF 393 renal it was 28.7 µM.

With `CN1CCN(CCCOc2cccc3nc(Nc4ccc(Cl)c(F)c4)ccc23)CC1`, the GI50 in the test with SF-295 CNS was 1.79 µM; in the test on M14 melanoma, 1.73 µM; in the test on U251 CNS, 1.81 µM; in the test on SK-MEL-28 melanoma, 1.72 µM; with HOP-62 NSCLC, 1.45 µM; in the test on OVCAR-4 ovarian it was 3.13 µM. The figures for the GI50 in the test on TK-10 renal, in the test with ACHN renal and in the test with RXF 393 renal were 1.81 µM, 1.66 µM and 1.96 µM, respectively. The TGI in the test on SF-295 CNS came out at 3.46 µM; with M14 melanoma, 3.37 µM; in the test on U251 CNS, 3.28 µM; in the test with SK-MEL-28 melanoma, 3.21 µM; with HOP-62 NSCLC, 3.26 µM; with OVCAR-4 ovarian, 12.4 µM. Further, the TGI with TK-10 renal is 3.28 µM; in the test with ACHN renal, 3.07 µM; in the test on RXF 393 renal, 4.04 µM.

Take `O=C(/C=C1\C(=O)N(Cc2ccc([N+](=O)[O-])cc2)c2ccccc21)c1ccc(OCCN2CCCCC2)cc1`: the GI50 with SF-295 CNS was 1.78 µM; in the test with M14 melanoma, 1.59 µM; with U251 CNS, 1.72 µM; in the test on SK-MEL-28 melanoma, 1.53 µM; in the test with HOP-62 NSCLC, 2.12 µM; with OVCAR-4 ovarian, 1.47 µM. Also, the GI50 in the test on TK-10 renal was 1.43 µM; with ACHN renal, 1.16 µM. Moreover, the TGI in the test on SF-295 CNS stood at 4.12 µM; in the test on M14 melanoma, 3.11 µM; in the test on U251 CNS it was 3.09 µM; in the test on SK-MEL-28 melanoma, 2.89 µM; with HOP-62 NSCLC, 6.32 µM; in the test on OVCAR-4 ovarian, 2.83 µM. In addition, the TGI in the test with TK-10 renal stood at 2.74 µM; in the test on ACHN renal, 2.38 µM.

In the case of `N=CCCN(CCC=N)c1ccc(/C=C2\CN(NC(=O)c3ccc(Cl)cc3)C(c3ccccc3)=N2)cc1`, the TGI with HL-60(TB) leukemia was more than 100 µM; with SF-295 CNS, more than 100 µM; in the test with M14 melanoma it was more than 100 µM; in the test on U251 CNS, 76.1 µM; in the test on SK-MEL-28 melanoma, more than 100 µM; in the test with HOP-62 NSCLC, more than 100 µM. Also, the TGI with OVCAR-4 ovarian, in the test with TK-10 renal and in the test on ACHN renal was more than 100 µM each time.

On to `O=C(/C=C/C12c3ccccc3C(c3ccccc31)C1C(=O)N(c3ccccc3)C(=O)C12)c1ccc(Cl)cc1` (configuration not stated), for which the GI50 with HL-60(TB) leukemia is 0.795 µM; in the test on M14 melanoma, 2.14 µM; with U251 CNS it was 1.84 µM; with SK-MEL-28 melanoma it was 1.98 µM; in the test with HOP-62 NSCLC it was 2.45 µM; in the test with TK-10 renal, 3.18 µM. Also, the GI50 with ACHN renal was 1.39 µM; with RXF 393 renal, 1.27 µM. In addition, the TGI in the test on HL-60(TB) leukemia came out at 5.18 µM; in the test on M14 melanoma it was 6.78 µM; with U251 CNS, 4.82 µM; in the test on SK-MEL-28 melanoma, 5.11 µM; in the test with HOP-62 NSCLC it was 6.86 µM; in the test on TK-10 renal, 25.1 µM. Moreover, the values for the TGI with ACHN renal and with RXF 393 renal were 2.81 µM and 2.87 µM, respectively.

Turning to `CCOC(=O)c1cc(/C=C/C(C)=C/C(=O)OC)oc1-c1ccccc1`, the TGI with HL-60(TB) leukemia, in the test with SF-295 CNS, in the test on M14 melanoma, in the test with U251 CNS, in the test with OVCAR-4 ovarian and with TK-10 renal was more than 100 µM each time. Moreover, in the test on ACHN renal, the TGI is more than 100 µM.

For `Nc1ncnc2c1ncn2C1OC(CSC(F)(F)F)C(O)C1O` (configuration not stated), the TGI with HL-60(TB) leukemia, with SF-295 CNS, in the test with M14 melanoma, in the test with U251 CNS, with SK-MEL-28 melanoma and in the test on HOP-62 NSCLC was more than 100 µM throughout. The TGI in the test with OVCAR-4 ovarian, with TK-10 renal and with ACHN renal was more than 100 µM each time.

In the case of `CCOC(=O)C1=C(C)NC2SC(=O)/C(=C\c3ccccc3Cl)N2C1c1ccccc1` (configuration not stated), the GI50 was 59.5 µM with HL-60(TB) leukemia; more than 100 µM in the test with SF-295 CNS; more than 100 µM with M14 melanoma; more than 100 µM in the test on U251 CNS; more than 100 µM in the test with SK-MEL-28 melanoma; more than 100 µM with HOP-62 NSCLC. Further, the GI50 in the test on TK-10 renal, in the test on ACHN renal and with RXF 393 renal was more than 100 µM in each case. The TGI with HL-60(TB) leukemia, in the test with SF-295 CNS, with M14 melanoma, with U251 CNS, with SK-MEL-28 melanoma and in the test with HOP-62 NSCLC was more than 100 µM each time. Moreover, the TGI in the test on TK-10 renal, in the test with ACHN renal and in the test with RXF 393 renal was more than 100 µM throughout.

Take `C[C@@H](C1CCC2C3C(=CC(=O)[C@@]21C)[C@H](C)[C@]1(CCC(=O)O1)C1OC31)[C@H]1C[C@]2(C)O[C@@](C)(O1)OC2(C)C` (some centres not stated): the TGI in the test with HL-60(TB) leukemia, with SF-295 CNS, in the test with M14 melanoma, in the test on U251 CNS, in the test with SK-MEL-28 melanoma and with TK-10 renal was more than 100 µM each time. In addition, the TGI with ACHN renal and with RXF 393 renal was more than 100 µM throughout.
